Data reported in the supplement of paper PMC10307832.

Legend:
Experiment in all cases: relative viability (nuclei count vs DMSO), 5 days (fraction); higher = more cells survive
SGI-1776 + Olaparib = compound: CN1CCC(CNc2ccc3ncc(-c4cccc(OC(F)(F)F)c4)n3n2)CC1 [SGI-1776] + O=C(c1cc(Cc2n[nH]c(=O)c3ccccc23)ccc1F)N1CCN(C(=O)C2CC2)CC1 [Olaparib] (partner 8 µM)
Procedure, shortened: (§1)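 A single step with final 0.05% Triton X-100, 1% formaldehyde and 1 ug/ml Hoechst fixed the cells and stained nuclei 5 days after treatment. Lung cancer cell lines in 1536-well plates had been treated by pin tool the day after seeding with one drug alone or a fixed anchor-drug dose plus five library-drug doses (not always all listed) in √10 steps, and nuclei were counted on 4× images. Relative viability is the ratio of nuclei in treated wells to nuclei in vehicle wells, taken as the median of duplicate plates.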

Entinostat + Phenformin = compound: Nc1ccccc1NC(=O)c1ccc(CNC(=O)OCc2cccnc2)cc1 [Entinostat] + N=C(N)NC(=N)NCCc1ccccc1 [Phenformin] (partner 250 µM)
Procedure, shortened: as §1

[1] = compound: C1COCCN1C2=NC(=NC3=C2OC4=C3C=CC=N4)C5=CC(=CC=C5)NC(=O)C6=CN=C(C=C6)N + CC(=O)c1c(C)c2cnc(Nc3ccc(N4CCNCC4)cn3)nc2n(C2CCCC2)c1=O [Palbociclib] (partner 0.5 µM)
Procedure, shortened: as §1

SGI-1776 + Phenformin = compound: CN1CCC(CNc2ccc3ncc(-c4cccc(OC(F)(F)F)c4)n3n2)CC1 [SGI-1776] + N=C(N)NC(=N)NCCc1ccccc1 [Phenformin] (partner 250 µM)
Procedure, shortened: as §1

Row | Cell Line | relative viability (SGI-1776 + Olaparib; first compound 0.08 µM) | relative viability (SGI-1776 + Olaparib; first compound 0.8 µM) | relative viability (SGI-1776 + Olaparib; first compound 2.53 µM) | relative viability (SGI-1776 + Olaparib; first compound 8 µM) | relative viability (Entinostat + Phenformin; first compound 0.02 µM) | relative viability (Entinostat + Phenformin; first compound 0.06325 µM) | relative viability (Entinostat + Phenformin; first compound 0.2 µM) | relative viability (Entinostat + Phenformin; first compound 0.6325 µM) | relative viability (Entinostat + Phenformin; first compound 2 µM) | relative viability ([1]; first compound 0.02 µM) | relative viability ([1]; first compound 0.06325 µM) | relative viability ([1]; first compound 0.2 µM) | relative viability ([1]; first compound 0.6325 µM) | relative viability ([1]; first compound 2 µM) | relative viability (SGI-1776 + Phenformin; first compound 0.08 µM) | relative viability (SGI-1776 + Phenformin; first compound 0.8 µM) | relative viability (SGI-1776 + Phenformin; first compound 2.53 µM) | relative viability (SGI-1776 + Phenformin; first compound 8 µM)
1 | LOU-NH91 | 0.968 | 0.986 | 0.957 | 0.773 | 0.746 | 0.773 | 0.75 | 0.706 | 0.55 | 0.541 | 0.551 | 0.565 | 0.49 | 0.535 | 0.754 | 0.733 | 0.716 | 0.565
2 | COR-L23 | 0.345 | 0.396 | 0.377 | 0.275 | 0.433 | 0.429 | 0.389 | 0.245 | 0.144 | 0.262 | 0.314 | 0.3 | 0.307 | 0.229 | 0.488 | 0.479 | 0.444 | 0.358
3 | NCI-H1437 | 0.65 | 0.618 | 0.6 | 0.552 | 0.288 | 0.261 | 0.199 | 0.197 | 0.215 | 0.3 | 0.312 | 0.269 | 0.295 | 0.2 | 0.322 | 0.259 | 0.296 | 0.297
4 | EPLC-272H | 1.01 | 0.922 | 0.737 | 0.348 | 0.297 | 0.303 | 0.276 | 0.175 | 0.217 | 0.313 | – | 0.313 | 0.37 | 0.329 | 0.261 | 0.326 | 0.352 | 0.246
5 | ChaGo-K-1 | 0.393 | 0.487 | 0.405 | 0.45 | 0.607 | 0.471 | 0.567 | 0.456 | 0.462 | 0.994 | 0.983 | 0.968 | 0.835 | 0.502 | 0.491 | 0.526 | 0.458 | 0.408
6 | NCI-H1666 | 0.794 | 0.782 | 0.838 | 0.729 | 0.56 | 0.609 | 0.581 | 0.497 | 0.443 | 0.627 | 0.681 | 0.672 | 0.622 | 0.571 | 0.615 | 0.544 | 0.527 | 0.502
7 | HCC-44 | 0.998 | 0.973 | 0.89 | 0.984 | 0.204 | 0.197 | 0.129 | 0.11 | 0.0548 | 0.952 | 0.987 | 0.96 | 1.01 | 1.01 | 0.197 | 0.174 | 0.151 | 0.125
8 | RERF-LC-KJ | 0.866 | 0.92 | 0.802 | 0.586 | 0.433 | 0.437 | 0.422 | 0.339 | 0.312 | 1.04 | 1.15 | 1.21 | 1 | 0.764 | 0.464 | 0.415 | 0.439 | 0.32
9 | LU99A | 0.304 | 0.312 | 0.305 | 0.238 | 0.783 | 0.891 | 0.722 | 0.609 | 0.545 | 0.412 | 0.448 | 0.361 | 0.343 | 0.29 | 0.816 | 0.712 | 0.915 | 0.783
10 | PC-3 [JPC-3] | 1.13 | 1.14 | 1.11 | 0.797 | 0.449 | 0.482 | 0.523 | 0.449 | 0.448 | 0.506 | 0.512 | – | 0.592 | 0.495 | 0.509 | 0.476 | 0.511 | 0.451
11 | NCI-H2126 | 0.99 | 0.936 | 0.911 | 0.91 | 0.53 | 0.512 | 0.535 | 0.452 | 0.363 | 0.297 | 0.367 | 0.345 | 0.388 | 0.36 | 0.543 | 0.509 | 0.535 | 0.473
12 | LXF-289 | 0.966 | 1.12 | 1.1 | 1.03 | 0.538 | 0.554 | 0.532 | 0.414 | 0.354 | 0.603 | 0.604 | 0.623 | 0.612 | 0.384 | 0.54 | 0.534 | 0.496 | 0.486
13 | BEN | 1.01 | 1.15 | 1.07 | 0.966 | 0.247 | 0.267 | 0.258 | 0.238 | 0.254 | 0.465 | 0.44 | 0.498 | 0.464 | 0.425 | 0.282 | 0.269 | 0.303 | 0.306
14 | SW 1573 | 0.381 | 0.428 | 0.475 | 0.297 | 0.38 | 0.483 | 0.41 | 0.45 | 0.382 | 0.397 | 0.381 | 0.37 | 0.429 | 0.261 | 0.381 | 0.31 | 0.356 | 0.275
15 | NCI-H1993 | 0.989 | 0.943 | 1.01 | 0.955 | 0.489 | 0.579 | 0.495 | 0.536 | 0.563 | 0.683 | 0.72 | 0.543 | 0.632 | 0.467 | 0.538 | 0.515 | 0.515 | 0.492
16 | NCI-H522 | 0.612 | 0.52 | 0.623 | 0.551 | 0.69 | 0.572 | 0.695 | 0.801 | 0.577 | 0.798 | 0.984 | 0.884 | 0.743 | 0.838 | 0.708 | 0.676 | 0.698 | 0.563
17 | SK-LU-1 | 0.514 | 0.5 | 0.452 | 0.5 | 0.579 | 0.693 | 0.497 | 0.398 | 0.362 | 0.382 | 0.382 | 0.371 | 0.367 | 0.359 | 0.528 | 0.494 | 0.37 | 0.322
18 | NCI-H460 | 0.503 | 0.482 | 0.431 | 0.481 | 0.511 | 0.479 | 0.298 | 0.0601 | 0.0314 | 0.149 | 0.186 | 0.112 | 0.146 | 0.0961 | 0.502 | 0.471 | 0.477 | 0.361
